{"source": "patent US20110217280A1", "about": "“METHODS FOR TREATING NEUROPSYCHIATRIC CONDITIONS” (priority 2007, published 2011)", "key": {"[1]": {"tested_on": "double transgenic GFP-M/DN-DISC1 mice", "assay": "In vivo monitoring of dendritic spine plasticity by two photon laser scanning microscopy", "details": "1 mg/kg i.p. once per day, imaging P40 to P70", "excerpt": "In the following experiment, dendritic spine plasticity is directly monitored in vivo by two photon laser scanning microscopy (TPLSM) in double transgenic GFP-M/DN-DISC1 mice treated with a PAK activator or a placebo. Mice (C57BL/6) expressing GFP in a subset of cortical layer 5 neurons (transgenic line GFP-M described in Feng et al., 2000, Neuron 28:41-51) are crossed with DN-DISC1 C57BL/6 DN-DISC1 mice (Hikida et al (2007), Proc Natl Acad Sci USA, 104(36):14501-14506) to obtain heterozygous transgenic mice, which are then crossed to obtain homozygous double transgenic GFPM/DN-DISC1 mice used in this study.\nGFP-M/DN-DISC1 animals aged 28-61 days are anesthetized using avertin ([…]; Sigma, St. Louis, Mo.). The skull is exposed, scrubbed, and cleaned with ethanol. […]\nFor in vivo two photon imaging, a two-photon laser scanning microscope is used as described in Majewska et al, (2000), Pflügers Arch, 441:398-408. […] Fluorescence is detected using photomultiplier tubes (HC125-02; Hamamatsu, Shizouka, Japan) in whole-field detection mode. The craniotomy over the visual cortex is initially identified under whole-field fluorescence illumination, and areas with superficial dendrites are identified using a 20×, 0.95 numerical aperture lens (IR2; Olympus Optical). […]"}, "[2]": {"target": "PAK1 (Homo sapiens, UniProt Q13153)", "sequence (Q13153 whole entry)": "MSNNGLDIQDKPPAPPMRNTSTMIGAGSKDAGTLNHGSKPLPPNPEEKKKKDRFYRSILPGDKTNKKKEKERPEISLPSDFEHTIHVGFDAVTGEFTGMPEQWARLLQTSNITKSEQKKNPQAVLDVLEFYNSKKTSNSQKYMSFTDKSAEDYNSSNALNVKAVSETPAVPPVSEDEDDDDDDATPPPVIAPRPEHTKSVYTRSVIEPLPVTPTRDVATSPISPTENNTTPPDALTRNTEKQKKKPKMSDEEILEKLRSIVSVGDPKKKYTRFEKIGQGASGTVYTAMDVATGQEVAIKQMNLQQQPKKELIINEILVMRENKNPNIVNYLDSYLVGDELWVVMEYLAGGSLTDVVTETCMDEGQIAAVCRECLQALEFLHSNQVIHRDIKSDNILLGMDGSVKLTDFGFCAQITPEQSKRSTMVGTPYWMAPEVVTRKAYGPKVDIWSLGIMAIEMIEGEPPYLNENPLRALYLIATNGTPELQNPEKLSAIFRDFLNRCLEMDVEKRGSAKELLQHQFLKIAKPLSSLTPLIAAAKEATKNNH", "details": "independent of GTPase activators such as Cdc42 or Rac; cited from earlier work"}}, "data": [{"smiles": "CCCCCCCCCCCCCC=CC(O)C(N)CO", "note": "(stereo not drawn) [sphingosine, 2-amino-4-octadecene-1,3-diol]", "values": [{"measurement": "spine density relative to untreated control animals", "setting": "[1]", "value": "increased spine density"}, {"measurement": "spine turnover relative to untreated control animals", "setting": "[1]", "value": "reduced spine turnover"}, {"measurement": "activation of PAK1", "setting": "[2]", "value": "activate PAK1 independently of GTPase activators"}]}]}
